One experiment relates to P. acnes CCARM 9010. The experiment can be described thus: MIC by micro broth dilution (Alamar blue), clindamycin-resistant/nonresponsive P. acnes. As to conditions: clindamycin-nonresponsive CCARM 9010. Type of experiment: cell-based, Propionibacterium acnes. On the procedure:
The plates were incubated at 37° C. for 48 h under anaerobic condition for P. acnes and 37° C. for 24 h for S. aureus The plates were read under Bio-Rad plate reader at 595 nm for optical density to generate the dose-response curves. The MIC of the test compound was recorded by addition of Alamar blue dye.
P. acnes (MTCC 3297, MTCC 1951& CCARM 9010) are cultured in Brain Heart Infusion (BHI) Broth at 37° C. for 48-72 h under anaerobic condition. The test compounds/formulations are initially diluted with suitable solvent and further diluted with BHI broth to get the required concentrations. Samples (100 μl) of different concentrations (prepared by serial dilution) are added to 96-well plate. To the wells, 100 μl of P. acnes BHI broth culture is added [culture turbidity adjusted against 0.5 McFarland standard (approx 1.5×10^8), and further diluted 100-fold with sterile BHI broth]. In addition Growth Control and Sterility Control are created using 100 μl each of P. acnes BHI broth culture and plain BHI broth, respectively.
Plates are incubated at 37° C. for 48-72 hrs under anaerobic condition. The plate is read under Bio-Rad plate reader @ 595 nm for optical density to generate the dose-response curves. The MIC of the test compound is recorded by addition of Alamar blue dye.

For experiment [1], the system named is P. acnes clinical isolates. Kind of experiment: MIC of P. acnes isolated from acne patients (clinical isolates).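 As to MIC: MIC in µg/mL.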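 As to all read-outs here: anaerobic 96-well plate assay at 37 °C over 72 h, with Alamar blue dye as read-out.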 The conditions noted are these: for MIC: Cutibacterium acnes, clinical isolate susceptible to clindamycin and erythromycin.
Experimental: P. acnes were cultured in Brain Heart Infusion Agar (BHIA) at 37° C. for 48 hours under anaerobic condition. […] For bacterial inoculum, P. acnes culture turbidity was adjusted to 0.5 McFarland standard (approximately 1.5×10^8) and further diluted (100 times with sterile BHI broth). Diluted P. acnes suspension (100 μl) was added to each well except sterility control wells (column 12 of 96 well plate). Inoculated plates were incubated at 37° C. for 72 hours under anaerobic condition. After incubation, MIC was determined by adding Alamar blue dye.

Molecules are shown by their SMILES.

With `CC[C@H]1OC(=O)[C@H](C)[C@@H](O[C@H]2C[C@@](C)(OC)[C@@H](O)[C@H](C)O2)[C@H](C)[C@@H](O[C@@H]2O[C@H](C)C[C@H](N(C)C)[C@H]2O)[C@](C)(O)C[C@@H](C)/C(=N\OCOCCOC)[C@H](C)[C@@H](O)[C@]1(C)O` [Roxithromycin], in the experiment on P. acnes CCARM 9010, the “Activity / bacterial killing, dose response curve (in words)” value is “resistant”.
As for `CC[C@H]1OC(=O)[C@H](C)[C@@H](O[C@H]2C[C@@](C)(OC)[C@@H](O)[C@H](C)O2)[C@H](C)[C@@H](O[C@@H]2O[C@H](C)C[C@H](N(C)C)[C@H]2O)[C@](C)(O)C[C@@H](C)C(=O)[C@H](C)[C@@H](O)[C@]1(C)O` [Erythromycin, erythromycin], the “Susceptibility of P. acnes isolated from volunteers V3 and V21 (in words)” value in experiment [1] is on record as “resistance”. For the same molecule, the “Susceptibility of clindamycin-nonresponder clinical isolates (in words)” value in experiment [1] is given as “wide variation in sensitivity”. The “Susceptibility of clinical isolates susceptible to clindamycin and erythromycin (in words)” value in experiment [1] was “susceptible”. Further, the minimum inhibitory concentration (MIC) in experiment [1] (P. acnes strain V2-9), in experiment [1] (P. acnes strain V2-10), in experiment [1] (P. acnes strain V3-9), in experiment [1] (P. acnes strain V3-10), in experiment [1] (P. acnes strain V4-6) and in experiment [1] (P. acnes strain V4-8) was less than 0.03 µg/mL in each case. The MIC in experiment [1] (P. acnes strain V4-13), in experiment [1] (P. acnes strain V5-2), in experiment [1] (P. acnes strain V5-5), in experiment [1] (P. acnes strain V5-7), in experiment [1] (P. acnes strain V6-5) and in experiment [1] (P. acnes strain V6-6) was less than 0.03 µg/mL throughout. The minimal inhibitory concentration (MIC) is less than 0.03 µg/mL in experiment [1] (P. acnes strain V6-7); less than 0.03 µg/mL in experiment [1] (P. acnes strain V7-3); less than 0.03 µg/mL in experiment [1] (P. acnes strain V7-4); less than 0.03 µg/mL in experiment [1] (P. acnes strain V7-14); less than 0.09 µg/mL in experiment [1] (P. acnes strain V9-6E); less than 0.09 µg/mL in experiment [1] (P. acnes strain V12-2E). The minimal inhibitory concentration (MIC) was less than 0.09 µg/mL in experiment [1] (P. acnes strain V13-3E); less than 0.09 µg/mL in experiment [1] (P. acnes strain V14-2E); 0.19 µg/mL in experiment [1] (P. acnes strain V15B-1E); 0.78 µg/mL in experiment [1] (P. acnes strain V17-3E); 0.19 µg/mL in experiment [1] (P. acnes strain V18-4E); less than 0.09 µg/mL in experiment [1] (P. acnes strain V19-2E). In addition, in experiment [1] (P. acnes strain V20-5E), the MIC is less than 0.09 µg/mL.
As to `CN(C)c1ccc(O)c2c1C[C@H]1C[C@H]3[C@H](N(C)C)C(O)=C(C(N)=O)C(=O)[C@@]3(O)C(O)=C1C2=O` [Minocycline, minocycline], the minimal inhibitory concentration (MIC) in experiment [1] (P. acnes strain V2-9), in experiment [1] (P. acnes strain V2-10), in experiment [1] (P. acnes strain V3-9), in experiment [1] (P. acnes strain V3-10), in experiment [1] (P. acnes strain V4-6) and in experiment [1] (P. acnes strain V4-8) was 0.06 µg/mL in each case. The MIC in experiment [1] (P. acnes strain V4-13), in experiment [1] (P. acnes strain V5-2), in experiment [1] (P. acnes strain V5-5), in experiment [1] (P. acnes strain V5-7), in experiment [1] (P. acnes strain V6-5) and in experiment [1] (P. acnes strain V6-6) was 0.06 µg/mL in each case. The MIC in experiment [1] (P. acnes strain V6-7), in experiment [1] (P. acnes strain V7-3), in experiment [1] (P. acnes strain V7-4) and in experiment [1] (P. acnes strain V7-14) was 0.06 µg/mL in each case.

(Values after patent publication US10071103B2, “Treatments for resistant acne” (VYOME BIOSCIENCES PVT. LTD., priority 2014, dated 2018).)
